Laboratory results: paper PMC10714133 (RSC Advances, 2023)

Legend:
P. knowlesi A1H1 = assay: Plasmodium lactate dehydrogenase; assay type: cell-based, Plasmodium knowlesi; conditions: for Selectivity index (SI) P. knowlesi: IC50 WRL-68 / EC50 PkA1H1; for EC50 against A1H1 strain, fold higher than CQ: relative to chloroquine diphosphate; for Antimalarial activity class against A1H1 strain: class by EC50 threshold
P. falciparum 3D7 = assay: Plasmodium lactate dehydrogenase; assay type: cell-based, Plasmodium falciparum; conditions: for Selectivity index (SI) P. falciparum: IC50 WRL-68 / EC50 Pf3D7; for Antimalarial activity class against 3D7 strain: class by EC50 threshold; for EC50 against 3D7, fold higher than CQ: relative to chloroquine diphosphate
[1] = test system: WRL-68 cell (human normal liver cell line); assay: MTT cytotoxicity assay; assay type: cell-based; conditions: read-out: WRL-68 cell (mammalian cell) IC50 (μM) ± SD, 72 hours incubation

| Compound | Selectivity index (SI) P. knowlesi (P. knowlesi A1H1) | Selectivity index (SI) P. falciparum (P. falciparum 3D7) | further results |
| --- | --- | --- | --- |
| CC1CCN(Cc2ccc(/C=C/C(=O)c3ccc(Cl)cc3)cc2O)CC1 [Compound 2g, (E)-1-(4-Chlorophenyl)-3-(3-hydroxy-4-((4-methylpiperidin-1-yl)methyl)phenyl)prop-2-en-1-one] | 0.47 | 0.54 |  |
| O=C(/C=C/c1ccc(O)c(CN2CCOCC2)c1)c1ccc(F)cc1 [Compound 2b, (E)-1-(4-Fluorophenyl)-3-(4-hydroxy-3-(morpholinomethyl)phenyl)prop-2-en-1-one] | 0.65 |  |  |
| O=C(/C=C/c1cccc(O)c1)c1ccc(F)cc1 [Compound 1a, (E)-1-(4-Fluorophenyl)-3-(3-hydroxyphenyl)prop-2-en-1-one] | 1.34 | 1.50 |  |
| O=C(/C=C/c1ccc(O)cc1)c1ccc(Cl)cc1 [Compound 1c, (E)-1-(4-Chlorophenyl)-3-(4-hydroxyphenyl)prop-2-en-1-one] | 0.52 |  |  |
| O=C(/C=C/c1ccc(O)cc1)c1ccc(F)cc1 [Compound 1b, (E)-1-(4-Fluorophenyl)-3-(4-hydroxyphenyl)prop-2-en-1-one] | 0.14 |  |  |
| O=C(/C=C/c1ccc(CN2CCCCC2)c(O)c1)c1ccc(Br)cc1 [Compound 2h, (E)-1-(4-Bromophenyl)-3-(3-hydroxy-4-(piperidin-1-ylmethyl)phenyl)prop-2-en-1-one] |  |  | EC50 against A1H1 strain, fold higher than CQ (P. knowlesi A1H1): about 3 fold; Antimalarial activity class against 3D7 strain (P. falciparum 3D7): potential (EC50 < 1 μM as potential activity); EC50 against 3D7, fold higher than CQ (P. falciparum 3D7): 83 fold; IC50 [1]: > 99 µM |
| CC1CCN(Cc2cc(/C=C/C(=O)c3ccc(Cl)cc3)ccc2O)CC1 [Compound 2f, (E)-1-(4-Chlorophenyl)-3-(4-hydroxy-3-((4-methylpiperidin-1-yl)methyl)phenyl)prop-2-en-1-one] | 4.10 | 4.73 | Antimalarial activity class against A1H1 strain (P. knowlesi A1H1): active; Antimalarial activity class against 3D7 strain (P. falciparum 3D7): good |
| O=C(/C=C/c1cccc(O)c1)c1ccc(Cl)cc1 [Compound 1d, (E)-1-(4-Chlorophenyl)-3-(3-hydroxyphenyl)prop-2-en-1-one] | 0.31 |  |  |
| CCN(CC)CCCC(C)Nc1ccnc2cc(Cl)ccc12 (stereo not drawn) [CQ, chloroquine diphosphate, reference compound] | >2500 | >2500 |  |
| O=C(/C=C/c1ccc(CN2CCCCC2)c(O)c1)c1ccc(F)cc1 [Compound 2a, (E)-1-(4-Fluorophenyl)-3-(3-hydroxy-4-(piperidin-1-ylmethyl)phenyl)prop-2-en-1-one] | 10.50 |  | Antimalarial activity class against A1H1 strain (P. knowlesi A1H1): active; EC50 against A1H1 strain, fold higher than CQ (P. knowlesi A1H1): about 66 fold; Antimalarial activity class against 3D7 strain (P. falciparum 3D7): potential (EC50 < 1 μM as potential activity); EC50 against 3D7, fold higher than CQ (P. falciparum 3D7): about 48 fold |
| O=C(/C=C/c1ccc(O)c(CN2CCCCC2)c1)c1ccc(F)cc1 [Compound 2c, (E)-1-(4-Fluorophenyl)-3-(4-hydroxy-3-(piperidin-1-ylmethyl)phenyl)prop-2-en-1-one] | 1.09 |  |  |
